For one assay, the target named is T1, LRRK2 (Homo sapiens, UniProt Q5S007, G2019S).
T1 construct: purchased Invitrogen PV4882 (lot 567054A)
T1 sequence (Q5S007 whole entry G2019S): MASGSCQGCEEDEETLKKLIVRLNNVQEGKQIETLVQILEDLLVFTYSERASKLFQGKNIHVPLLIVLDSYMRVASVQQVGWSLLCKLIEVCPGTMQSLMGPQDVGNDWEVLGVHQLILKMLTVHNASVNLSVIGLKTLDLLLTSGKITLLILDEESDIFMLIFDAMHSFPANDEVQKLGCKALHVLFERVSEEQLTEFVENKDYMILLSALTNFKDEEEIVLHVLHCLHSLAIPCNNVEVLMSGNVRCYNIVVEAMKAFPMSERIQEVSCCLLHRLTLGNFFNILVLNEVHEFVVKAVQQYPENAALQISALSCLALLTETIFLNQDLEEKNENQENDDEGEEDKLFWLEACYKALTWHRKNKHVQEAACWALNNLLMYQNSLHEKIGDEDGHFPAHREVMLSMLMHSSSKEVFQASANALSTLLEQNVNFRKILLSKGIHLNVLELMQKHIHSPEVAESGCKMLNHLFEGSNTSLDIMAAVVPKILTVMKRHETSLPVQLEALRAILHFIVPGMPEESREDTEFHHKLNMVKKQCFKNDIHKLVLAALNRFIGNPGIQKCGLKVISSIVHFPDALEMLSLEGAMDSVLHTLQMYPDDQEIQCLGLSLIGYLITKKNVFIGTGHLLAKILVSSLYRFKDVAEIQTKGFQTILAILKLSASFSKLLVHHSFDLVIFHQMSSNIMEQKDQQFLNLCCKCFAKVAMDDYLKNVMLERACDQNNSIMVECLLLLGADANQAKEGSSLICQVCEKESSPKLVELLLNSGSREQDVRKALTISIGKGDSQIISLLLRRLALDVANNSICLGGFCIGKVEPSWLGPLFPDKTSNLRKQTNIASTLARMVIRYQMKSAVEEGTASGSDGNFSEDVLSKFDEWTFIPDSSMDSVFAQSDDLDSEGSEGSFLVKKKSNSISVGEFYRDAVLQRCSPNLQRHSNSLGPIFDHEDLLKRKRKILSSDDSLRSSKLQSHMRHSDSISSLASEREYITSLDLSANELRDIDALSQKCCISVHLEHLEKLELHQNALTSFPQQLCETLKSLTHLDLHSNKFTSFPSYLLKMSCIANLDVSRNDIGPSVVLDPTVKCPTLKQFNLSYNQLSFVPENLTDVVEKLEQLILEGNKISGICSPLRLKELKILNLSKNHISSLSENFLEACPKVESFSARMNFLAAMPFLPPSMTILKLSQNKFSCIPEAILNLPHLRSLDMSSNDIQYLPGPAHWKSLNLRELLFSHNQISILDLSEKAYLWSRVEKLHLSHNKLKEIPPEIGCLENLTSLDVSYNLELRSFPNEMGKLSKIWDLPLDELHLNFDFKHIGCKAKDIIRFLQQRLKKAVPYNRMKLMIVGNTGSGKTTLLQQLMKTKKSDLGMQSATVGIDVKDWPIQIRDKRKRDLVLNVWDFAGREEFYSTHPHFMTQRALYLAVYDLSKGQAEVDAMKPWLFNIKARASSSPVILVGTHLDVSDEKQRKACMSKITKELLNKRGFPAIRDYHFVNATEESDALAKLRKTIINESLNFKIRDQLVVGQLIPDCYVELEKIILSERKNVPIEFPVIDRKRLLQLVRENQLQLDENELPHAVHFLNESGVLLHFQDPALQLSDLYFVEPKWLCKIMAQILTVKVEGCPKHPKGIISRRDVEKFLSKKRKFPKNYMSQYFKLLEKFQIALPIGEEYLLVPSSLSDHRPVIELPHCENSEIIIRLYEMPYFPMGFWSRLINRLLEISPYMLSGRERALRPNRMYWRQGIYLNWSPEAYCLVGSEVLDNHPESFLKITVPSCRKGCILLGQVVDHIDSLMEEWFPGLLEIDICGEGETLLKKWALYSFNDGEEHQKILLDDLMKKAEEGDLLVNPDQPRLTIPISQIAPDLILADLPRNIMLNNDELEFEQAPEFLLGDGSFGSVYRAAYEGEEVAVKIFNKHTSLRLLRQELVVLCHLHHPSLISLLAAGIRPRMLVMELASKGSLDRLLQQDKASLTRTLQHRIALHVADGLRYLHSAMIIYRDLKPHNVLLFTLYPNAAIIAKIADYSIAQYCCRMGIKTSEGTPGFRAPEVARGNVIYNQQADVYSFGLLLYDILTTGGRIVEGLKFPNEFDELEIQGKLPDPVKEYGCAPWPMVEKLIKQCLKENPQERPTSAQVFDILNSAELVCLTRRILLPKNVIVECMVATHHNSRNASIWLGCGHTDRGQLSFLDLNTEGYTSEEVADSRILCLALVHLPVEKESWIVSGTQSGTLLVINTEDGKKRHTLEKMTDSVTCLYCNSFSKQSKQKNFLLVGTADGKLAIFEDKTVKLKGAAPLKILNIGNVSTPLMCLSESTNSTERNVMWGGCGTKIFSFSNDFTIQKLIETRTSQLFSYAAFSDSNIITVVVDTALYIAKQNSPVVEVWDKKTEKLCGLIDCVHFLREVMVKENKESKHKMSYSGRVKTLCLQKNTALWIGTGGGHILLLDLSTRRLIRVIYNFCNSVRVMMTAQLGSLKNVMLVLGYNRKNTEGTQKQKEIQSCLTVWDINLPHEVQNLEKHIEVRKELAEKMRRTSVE
In words: In Vitro LRRK2 Assay (LabChip 3000, fluorescently-labeled peptide substrate, ATP). The class given is biochemical. The settings on record: Table 9; LRRK2 Ki (micromolar); read-out: LRRK2 Ki (KI). The protocol:
This assay was used to determine a compound's potency in inhibiting activity of LRRK2 by determining, Kiapp, IC50, or percent inhibition values. In a polypropylene plate, LRRK2, fluorescently-labeled peptide substrate, ATP and test compound were incubated together. Using a LabChip 3000 (Caliper Life Sciences), after the reaction the substrate was separated by capillary electrophoresis into two populations: phosphorylated and unphosphorylated. The relative amounts of each were quantitated by fluorescence intensity. LRRK2 Ki was determined according to the equation: Y=V0*(1−(x+Ki*(1+S/Km)+Et)/(2*Et)−(((x+Ki*(1+S/Km)+Et)^2−(4*Et*x))^0.5)/(2*Et))). Ki values in Table 4 and elsewhere herein are shown in μM.
Assay conditions and materials used were as follows:
Compound Plate Preparation:
For serial dilutions, 34.6 μl DMSO was added to columns 3-24.
Total and Blank Preparation:
In Complete Reaction Buffer, substrate was diluted to 4 μM. Equal volumes of Complete Reaction Buffer and 4 μM substrate were combined to obtain the blank. Equal volumes of Complete Reaction Buffer and 4 μM substrate were combined and to the combined solution was added 2× final LRRK2 concentration.
To a 50 μl polypropylene plate, 5 μl/well buffer/substrate was added by hand to Blank wells. A Biomek FX was used to start the kinase reaction (“PLK SAR 23 ATP”). The following were added to the appropriate wells:
5 μl/well compound/ATP in Assay Plate;
5 μl/well kinase/substrate in Assay Plate;
The plate was incubated for 2 hours in the dark. Biomek FX was used to stop the kinase reaction (“PLK Stop”), and 10 μl/well Stop solution was added to the Assay Plate. Results were read on the LabChip 3000.
The LabChip 3000 was run using the job “LRRK2 IC50” with the following job settings: […]
One may read the Ki as a measure of affinity in units of concentration, obtained from inhibition or displacement. As to `Cc1c(Nc2ncc(C#N)c(OCC(F)F)n2)cnn1C` [Example 391, 4-(2,2-Difluoro-ethoxy)-2-(1,5-dimethyl-1H-pyrazol-4-ylamino)-pyrimidine-5-carbonitrile], the Ki was found to be 211 nM. The same measure, in the same setting: next, `CNc1nc(Nc2cn(C(C)C)nc2C)ncc1C#N` [Example 352, 2-(1-isopropyl-3-methyl-1H-pyrazol-4-ylamino)-4-(methylamino) pyrimidine-5-carbonitrile]: 48 nM.

The same assay, now with this note: Table 10; LRRK2 Ki (micromolar); read-out: LRRK2 Ki (KI).
For `COC(=O)C(C)(C)n1ncc(Nc2ncc(Cl)c(OC)n2)c1C` [Example 434, 2-[4-(5-Chloro-4-methoxy-pyrimidin-2-ylamino)-5-methyl-pyrazol-1-yl]-2-methyl-propionic acid methyl ester], the Ki is 12.2 nM. On the same count and under the same terms, next, `COC(=O)C(C)(C)n1cc(Nc2ncc(Cl)c(OC)n2)c(C)n1` [Example 435, 2-[4-(5-Chloro-4-methoxy-pyrimidin-2-ylamino)-3-methyl-pyrazol-1-yl]-2-methyl-propionic acid methyl ester]: 35.5 nM; `CNc1nc(Nc2cnn(CC(=O)N(C)C)c2C)ncc1C(F)(F)F` [Example 395, N,N-dimethyl-2-(5-methyl-4-(4-(methylamino)-5-(trifluoromethyl)pyrimidim-2-ylamino)-1H-pyrazol-1-yl)acetamide]: 15 nM. The same measure, in the same setting: next, `CNc1nc(Nc2cn(CC(C)(C)C#N)nc2C)ncc1C(F)(F)F` [Example 420, 2,2-dimethyl-3-(3-methyl-4-(4-(methylamino)-5-(trifluoromethyl)pyrimidin-2-ylamino)-1H-pyrazol-1-yl)propanenitrile]: 2.8 nM.

Still in this assay, the particulars now being: read-out: LRRK2 Ki (KI), Table 7.
As for `CNc1nc(Nc2cn(C(C)C)nc2C)ncc1Cl` [Example 31, 5-Chloro-N^2-(1-isopropyl-3-methyl-1H-pyrazol-4-yl)-N^4-methylpyrimidine-2,4-diamine], the Ki was determined as 12 nM.

Staying with this assay, now noted: read-out: LRRK2 Ki (KI), Table 8.
Consider `CNc1nc(Nc2cnn(-c3ccc(C(=O)N(C)C)cc3)c2C)ncc1C(F)(F)F` [Example 156, N,N-dimethyl-4-(5-methyl-4-(4-(methylamino)-5-(trifluoromethyl)pyrimidin-2-ylamino)-1H-pyrazol-1-yl)benzamide], for which the Ki turned out to be 0.3 nM. On the same count and under the same terms, next, `CCNc1nc(Nc2cn(C(C)(C)c3ccnn3C)nc2C)ncc1C(F)(F)F` [Example 343, N4-ethyl-N2-(3-methyl-1-(2-(1-methyl-1H-pyrazol-5-yl)propan-2-yl)-1H-pyrazol-4-yl)-5-(trifluoromethyl) pyrimidine-2,4-diamine]: 0.3 nM.

For `CNc1nc(Nc2cn(C3CCN(CC(F)(F)F)CC3)nc2C)ncc1Br` [Example 94, 5-bromo-N4-methyl-N2-(3-methyl-1-(1-(2,2,2-trifluoroethyl)piperidin-4-yl)-1H-pyrazol-4-yl)pyrimidine-2,4-diamine], the Ki was 13 nM. On to `CCNc1nc(Nc2cnn(C3CCC(=O)N(C)C3)c2C)ncc1C(F)(F)F` (centres unmarked) [Example 151, 5-(4-(4-(ethylamino)-5-(trifluoromethyl)pyrimidin-2-ylamino)-5-methyl-1H-pyrazol-1-yl)-1-methylpiperidin-2-one], for which the Ki came to 1.1 nM.

In the case of `CNc1nc(Nc2cn(-c3cncnc3)nc2C)ncc1C(F)(F)F` [Example 140, N4-methyl-N2-(3-methyl-1-(pyrimidin-5-yl)-1H-pyrazol-4-yl)-5-(trifluoromethyl) pyrimidine-2,4-diamine], the Ki was determined as 6.1 nM.

On to `CNc1nc(Nc2cn(-c3ccc(C(=O)N(C)C)cc3)nc2C)ncc1C(F)(F)F` [Example 164, N,N-dimethyl-4-(3-methyl-4-(4-(methylamino)-5-(trifluoromethyl)pyrimidin-2-ylamino)-1H-pyrazol-1-yl)benzamide], for which the Ki stood at 5.7 nM.

Regarding `CNc1nc(Nc2cn(-c3ccnc(C)c3)nc2C)ncc1C(F)(F)F` [Example 143, N4-methyl-N2-(3-methyl-1-(2-methylpyridin-4-yl)-1H-pyrazol-4-yl)-5-(trifluoromethyl) pyrimidine-2,4-diamine], the Ki came to 6.9 nM.

The record behind these values is patent publication US8815882B2, “Pyrazole aminopyrimidine derivatives as LRRK2 modulators” (Genentech, Inc., priority 2010, dated 2014).
